This is an account of results in US11555055B2, “Peptide inhibitors of insulin-degrading enzyme” (The Regents of the University of California, priority 2017, dated 2023).

Where a SMILES comes first, the peptide text is derived from it. Bridges are numbered along the chain shown (N, C = ends).

Holding throughout (type): cell-based, mouse
Test [1] deals with primary murine skin fibroblasts. As to the kind of experiment: Insulin degradation in cultured skin fibroblasts, insulin in medium by ELISA. As to conditions: 100 μM P12-3A, 10 nM insulin, up to day 4, logarithmically growing cells. On the procedure: (§1) FIG. 4A-F. Effects of P12-3A on cultured skin cells. A, Insulin concentrations as a function of time in logarithmically growing primary murine skin fibroblasts in the absence or presence of P12-3A (100 μM). […] Data are mean±SEM of 4 independent replications. *P<0.05, **P<0.01. B, Proliferation of cells in the absence or presence of P12-3A (100 μM). […] C,D,E, P12-3A (100 μM) potentiates insulin-induced collagen production in skin fibroblasts. Collagen production was assessed by COL1A1 mRNA levels (C), levels of hydroxyproline secreted into the medium (D), and cell-associated mature alpha-1 type I collagen levels detected by Western blotting (E). […] Migration of HaCaT cells 48 h after induction of a scratch wound in the presence of the indicated quantities of insulin and/or P12-3A (100 μM). […]
(§2) Insulin promotes wound healing and overall skin health by affecting a number of processes, including cell proliferation (2,3), cell migration (5,6), and the production and secretion of ECM components, particularly type I collagen (7-13). We therefore assessed the ability of P12-3A to influence these processes in cultured skin fibroblasts and keratinocytes. To that end, primary mouse skin fibroblasts were grown for 4 d in multiple concentrations of insulin in the presence or absence of P12-3A, and insulin concentration over time was monitored by ELISA. […]

Test [2] relates to alpha-1 type I collagen (COL1A1) mRNA in primary murine skin fibroblasts. Kind of test: COL1A1 mRNA quantification by RT-PCR. The following applies: P12-3A 100 μM, 4 d, confluent monolayers. The method, then:
as §1, §2

The test system of test [3] is primary murine skin fibroblasts. As to the kind of experiment: Hydroxyproline secreted into the medium (collagen production and secretion). The following applies: P12-3A 100 μM. On the procedure: as §1, §2

In the case of `CC(C)C[C@H](NC(=O)[C@H](CO)NC(=O)[C@@H](N)CCC(N)=O)C(=O)N1CCC[C@H]1C(=O)N[C@@H](Cc1c[nH]c2ccccc12)C(=O)N[C@H]1CSSC[C@@H](C(=O)N[C@H](C(=O)N[C@H](C(N)=O)[C@@H](C)O)C(C)C)NC(=O)[C@H](Cc2c[nH]cn2)NC(=O)[C@@H]2CCCN2C(=O)[C@H](Cc2ccc(O)cc2)NC1=O` [Peptide P12-3A] (H-QSLPWCYPHCVT-NH2; disulfide 6-10 (inferred)), the “insulin levels over time in cell culture” value in test [1] is “remain constant”. In addition, the “COL1A1 mRNA levels” value in test [2] was ~2.6 times the levels of untreated cells. Also, the “hydroxyproline levels secreted into the medium” value in test [3] is on record as ~4.6 times that secreted by untreated cells.
